In publication PMC2171590 (The Journal of Cell Biology, 2005):

Tests used:
Arp2/3 complex (yeast) [1] = biological target: Arp2/3 complex (yeast) (Saccharomyces cerevisiae, UniProt P32381+P47117, P32381:Y309A); assay: fluorescence increase titration, one-site fit; assay type: binding
Arp2/3 complex (yeast) [2] = biological target: Arp2/3 complex (yeast) (Saccharomyces cerevisiae, UniProt P32381+P47117, P32381:D10A); assay: fluorescence increase titration, one-site fit; assay type: binding
Arp2/3 complex (yeast) [3] = biological target: Arp2/3 complex (yeast) (Saccharomyces cerevisiae, UniProt P32381+P47117, P47117:D12A); assay: fluorescence increase titration, one-site fit; assay type: binding
Arp2/3 complex (yeast) [4] = biological target: Arp2/3 complex (yeast) (Saccharomyces cerevisiae, UniProt P32381+P47117, P47117:F362A); assay: fluorescence increase titration, one-site fit; assay type: binding
Arp2/3 complex (yeast) [5] = biological target: Arp2/3 complex (yeast) (Saccharomyces cerevisiae, UniProt P32381+P47117, P32381:G305Y); assay: fluorescence increase titration, one-site fit; assay type: binding
Arp2/3 complex (yeast) [6] = biological target: Arp2/3 complex (yeast) (Saccharomyces cerevisiae, UniProt P32381+P47117, P47117:G358Y); assay: fluorescence increase titration, one-site fit; assay type: binding
Arp2/3 complex (yeast) [7] = biological target: Arp2/3 complex (yeast) (Saccharomyces cerevisiae, UniProt P32381+P47117); assay: fluorescence increase titration, one-site fit; assay type: binding
[8] = biological target: GST-tagged Las17WCA (S. cerevisiae); assay: pull-down
Sequence of GST-tagged Las17WCA (S. cerevisiae) (Q12446 whole entry): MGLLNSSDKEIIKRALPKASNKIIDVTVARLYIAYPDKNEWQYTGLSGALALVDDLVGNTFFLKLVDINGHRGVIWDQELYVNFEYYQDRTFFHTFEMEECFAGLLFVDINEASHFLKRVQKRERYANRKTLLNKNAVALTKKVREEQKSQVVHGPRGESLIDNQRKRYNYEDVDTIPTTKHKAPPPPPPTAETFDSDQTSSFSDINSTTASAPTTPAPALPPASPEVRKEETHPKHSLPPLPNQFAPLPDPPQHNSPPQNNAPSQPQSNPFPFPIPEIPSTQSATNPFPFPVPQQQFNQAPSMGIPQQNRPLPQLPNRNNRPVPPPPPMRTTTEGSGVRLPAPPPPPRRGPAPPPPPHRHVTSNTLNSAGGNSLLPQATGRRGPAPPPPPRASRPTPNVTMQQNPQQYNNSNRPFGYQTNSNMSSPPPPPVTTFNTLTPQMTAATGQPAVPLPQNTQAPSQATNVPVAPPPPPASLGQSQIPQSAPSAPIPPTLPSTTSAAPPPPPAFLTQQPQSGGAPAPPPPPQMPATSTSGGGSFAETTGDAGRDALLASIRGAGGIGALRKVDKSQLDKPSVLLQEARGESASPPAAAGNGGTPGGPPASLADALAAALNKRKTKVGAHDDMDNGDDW

`O=P(O)(O)OP(=O)(O)OP(=O)(O)OC[C@H]1O[C@@H](n2cnc3c2ncn2ccnc32)[C@H](O)[C@@H]1O` [etheno-ATP] showed a Kd (Arp2/3 complex (yeast) [1]) of 2.4 ± 0.2 µM, a Kd (Arp2/3 complex (yeast) [2]) of 2 ± 0.1 µM and a Kd (Arp2/3 complex (yeast) [3]) of 34.5 ± 2.2 µM. It also gave a Kd (Arp2/3 complex (yeast) [4]) of 16.7 ± 4.2 µM, a Kd (Arp2/3 complex (yeast) [5]) of 1.8 ± 0.1 µM and a Kd (Arp2/3 complex (yeast) [6]) of 22 ± 4.4 µM. For the same compound, the Kd (Arp2/3 complex (yeast) [7]) was 2.3 ± 0.1 µM.

“arp2-G302Y Arp2/3 complex (from UniProt P47117 1-449; P38328 1-384; Q05933 1-178; P40518 1-154)” gave a Kd [8] of 3.9 µM.

With “arp3-G302Y Arp2/3 complex (from UniProt P32381 1-391; P38328 1-384; Q05933 1-178; P40518 1-154)” the Kd [8] was 4.5 µM.

For “wild-type yeast Arp2/3 complex (from UniProt P32381 1-391; P47117 1-449; P38328 1-384; Q05933 1-178; P40518 1-154)”, the Kd [8] was 4.5 µM.
